PMC10002422, “Aggregation Limiting Cell-Penetrating Peptides Derived from Protein Signal Sequences” (International Journal of Molecular Sciences, 2023)
Where no end group is shown, it is not given here.

Assays:
[1] = test system: Aβ1–42-GFP fusion protein expressed in U87 cells; experiment: Reduction in expressed Aβ1–42-GFP aggregation, flow cytometry; type: cell-based, human; conditions: control inhibitor

O=S1(=O)OC(c2ccc(O)cc2)(c2ccc(O)cc2)c2ccccc21 [phenol red]
green signal in Aβ42–EGFP expressing cells after known Aβ inhibitor [1]: significantly increased the green signal

MANLGYWLLALFVTMWTDVGLCKKRPKP-NH2 [PrP1–28]
peptide concentration at which cell viability is reduced (MTS) in serum free media (U87 cells): 2.5 µM | reduction in the viability of cells (MTS) in serum free media (U87 cells): over 20%

MLRTKDLIWTLFFLGTAVSKKRPKP-NH2 [NCAM1_1–19PrP23–28]
peptide concentration at which cell viability is reduced (MTS) in serum free media (U87 cells): 20 µM
